Assay results reported in patent US12540120B2, “Herbicidal compounds” (SYNGENTA CROP PROTECTION AG, priority 2019, dated 2026).

What was measured:
Format in all cases: in vivo
[1] = tested on: Solanum nigrum (SOLNI); test: B5 Pre-Emergence Efficacy—Test 2; conditions: 250 g/ha, evaluated after 13 days
Description: (§1) B5 Pre-Emergence Efficacy—Test 2 Seeds of a variety of test species were sown in standard soil in pots: Solanum nigrum (SOLNI), Amaranthus retoflexus (AMARE), Setaria faberi (SETFA), Echinochloa crus-galli (ECHCG), Ipomoea hederacea (IPOHE), Lolium perenne (LOLPE). After cultivation for one day (pre-emergence) under controlled conditions in a glasshouse (at 24/16° C., day/night; 14 hours light; 65% humidity), the plants were sprayed with an aqueous spray solution derived from the formulation of the technical active ingredient in acetone/water (50:50) solution containing 0.5% Tween 20 (polyoxyethelyene sorbitan monolaurate, CAS RN 9005-64-5). Compounds are applied at 250 g/ha. The test plants were then grown in a glasshouse under controlled conditions (at 24/16° C., day/night; 14 hours light; 65% humidity) and watered twice daily. After 13 days, the test is evaluated for the percentage damage caused to the plant. The biological activities are assessed on a five point scale (5=80-100%; 4=60-79%; 3=40-59%; 2=20-39%; 1=0-19%). A blank value in the table is indicative that the compound was not tested on that species.

[2] = tested on: Amaranthus retoflexus (AMARE); test: B5 Pre-Emergence Efficacy—Test 2; conditions: 250 g/ha, evaluated after 13 days
Description: as §1

[3] = tested on: Setaria faberi (SETFA); test: B5 Pre-Emergence Efficacy—Test 2; set-up: key: 5-point scale: 5=80-100%, 4=60-79%, 3=40-59%, 2=20-39%, 1=0-19% damage; conditions: 250 g/ha, evaluated after 13 days
Description: as §1

[4] = tested on: Ipomoea hederacea (IPOHE); test: B5 Pre-Emergence Efficacy—Test 2; set-up: key: 5-point scale: 5=80-100%, 4=60-79%, 3=40-59%, 2=20-39%, 1=0-19% damage; conditions: 250 g/ha, evaluated after 13 days
Description: as §1

[5] = tested on: Echinochloa crus-galli (ECHCG); test: B5 Pre-Emergence Efficacy—Test 2; set-up: key: 5-point scale: 5=80-100%, 4=60-79%, 3=40-59%, 2=20-39%, 1=0-19% damage; conditions: 250 g/ha, evaluated after 13 days
Description: as §1

[6] = tested on: Lolium perenne (LOLPE); test: B5 Pre-Emergence Efficacy—Test 2; set-up: key: 5-point scale: 5=80-100%, 4=60-79%, 3=40-59%, 2=20-39%, 1=0-19% damage; conditions: 250 g/ha, evaluated after 13 days
Description: as §1

[7] = tested on: Setaria faberi (SETFA); test: B2 Post-Emergence Efficacy—Test 2; conditions: post-emergence application, 250 g/ha, evaluated after 13 days (Test 2)
Description: (§2) B2 Post-Emergence Efficacy—Test 2 Seeds of a variety of test species are sown in standard soil in pots:—Solanum nigrum (SOLNI), Amaranthus retoflexus (AMARE), Setaria faberi (SETFA), Echinochloa crus-galli (ECHCG), Ipomoea hederacea (IPOHE), Lolium perenne (LOLPE). After 8 days cultivation (post-emergence) under controlled conditions in a glasshouse (at 24/16° C., day/night; 14 hours light; 65% humidity), the plants are sprayed with an aqueous spray solution derived from the formulation of the technical active ingredient in acetone/water (50:50) solution containing 0.5% Tween 20 (polyoxyethylene sorbitan monolaurate, CAS RN 9005-64-5). Compounds are applied at 250 g/ha. The test plants are then grown in a glasshouse under controlled conditions in a glasshouse (at 24/16° C., day/night; 14 hours light; 65% humidity) and watered twice daily. After 13 days, the test is evaluated for the percentage damage caused to the plant. The biological activities are assessed on a five point scale (5=80-100%; 4=60-79%; 3=40-59%; 2=20-39%; 1=0-19%). A blank value in the table is indicative that the compound was not tested on that species.

[8] = tested on: Ipomoea hederacea (IPOHE); test: B2 Post-Emergence Efficacy—Test 2; conditions: post-emergence application, 250 g/ha, evaluated after 13 days (Test 2)
Description: as §2

[9] = tested on: Solanum nigrum (SOLNI); test: B2 Post-Emergence Efficacy—Test 2; conditions: post-emergence application, 250 g/ha, evaluated after 13 days (Test 2)
Description: as §2

[10] = tested on: Echinochloa crus-galli (ECHCG); test: B2 Post-Emergence Efficacy—Test 2; conditions: post-emergence application, 250 g/ha, evaluated after 13 days (Test 2)
Description: as §2

[11] = tested on: Amaranthus retoflexus (AMARE); test: B2 Post-Emergence Efficacy—Test 2; conditions: post-emergence application, 250 g/ha, evaluated after 13 days (Test 2)
Description: as §2

[12] = tested on: Lolium perenne (LOLPE); test: B2 Post-Emergence Efficacy—Test 2; conditions: post-emergence application, 250 g/ha, evaluated after 13 days (Test 2)
Description: as §2

Compound | Control of weed species after pre-emergence application, SOLNI (percentage damage, five point scale) [1] | Control of weed species after pre-emergence application, AMARE (percentage damage, five point scale) [2] | Control of weed species after pre-emergence application, SETFA (percentage damage, five point scale) [3] | Control of weed species after pre-emergence application, IPOHE (percentage damage, five point scale) [4] | Control of weed species after pre-emergence application, ECHCG (percentage damage, five point scale) [5] | Control of weed species after pre-emergence application, LOLPE (percentage damage, five point scale) [6] | percentage damage caused to the plant, five point scale, SETFA [7] | percentage damage caused to the plant, five point scale, IPOHE [8] | percentage damage caused to the plant, five point scale, SOLNI [9] | percentage damage caused to the plant, five point scale, ECHCG [10] | percentage damage caused to the plant, five point scale, AMARE [11] | percentage damage caused to the plant, five point scale, LOLPE [12]
Cc1nn(C)c(=O)c(-c2c(F)ccc(Cl)c2/C=C/c2cccc(C#N)c2)c1OC(=O)C(C)C [Compound A-4.030] | 4 (4=60-79%) | 3 (3=40-59%) | 1 (1=0-19%) | 1 (1=0-19%) | 1 (1=0-19%) | 2 (2=20-39%) | 0 | 3 (3=40-59%) | 3 (3=40-59%) | 1 (1=0-19%) | 2 (2=20-39%) | 1 (1=0-19%)
Cc1nn(C)c(=O)c(-c2c(F)ccc(Cl)c2CCc2cccc(C#N)c2)c1O [Compound A-1.030] | 5 (5=80-100%) | 5 (5=80-100%) | 5 (5=80-100%) | 0 | 5 (5=80-100%) | 4 (4=60-79%) | 4 (4=60-79%) | 5 (5=80-100%) | 5 (5=80-100%) | 4 (4=60-79%) | 4 (4=60-79%) | 5 (5=80-100%)
Cc1nn(C)c(=O)c(-c2c(F)ccc(Cl)c2/C=C/c2ccc(C3CC3)cc2)c1OC(=O)C(C)C [Compound A-4.038, [5-[3-chloro-2-[(E)-2-(4-cyclopropylphenyl)vinyl]-6-fluoro-phenyl]-1,3-dimethyl-6-oxo-pyridazin-4-yl] 2-methylpropanoate] | 1 (1=0-19%) | 2 (2=20-39%) | 0 | 0 | 0 | 0 | 0 | 2 (2=20-39%) | 5 (5=80-100%) | 1 (1=0-19%) | 1 (1=0-19%) | 1 (1=0-19%)
Cc1nn(C)c(=O)c(-c2c(F)ccc(Cl)c2CCc2ccc(S(=O)(=O)N(C)C)cc2)c1O [Compound A-1.025] | 5 (5=80-100%) | 5 (5=80-100%) | 5 (5=80-100%) | 1 (1=0-19%) | 5 (5=80-100%) | 4 (4=60-79%) | 5 (5=80-100%) | 5 (5=80-100%) | 5 (5=80-100%) | 5 (5=80-100%) | 5 (5=80-100%) | 5 (5=80-100%)
Cc1nn(C)c(=O)c(-c2c(F)ccc(Cl)c2/C=C/c2ccc(C#N)cc2)c1OC(=O)C(C)C [Compound A-4.036, [5-[3-Chloro-2-[(E)-2-(4-cyanophenyl)vinyl]-6-fluoro-phenyl]-1,3-dimethyl-6-oxo-pyridazin-4-yl] 2-methylpropanoate] | 5 (5=80-100%) | 2 (2=20-39%) | 0 | 3 (3=40-59%) | 1 (1=0-19%) | 1 (1=0-19%) | 1 (1=0-19%) | 4 (4=60-79%) | 5 (5=80-100%) | 3 (3=40-59%) | 2 (2=20-39%) | 3 (3=40-59%)
Cc1nn(C)c(=O)c(-c2c(F)ccc(Cl)c2/C=C/c2ccc(O)cc2)c1O [Compound A-2.037] | 0 | 0 | 1 (1=0-19%) | 1 (1=0-19%) | 0 | 1 (1=0-19%) | 1 (1=0-19%) | 2 (2=20-39%) | 2 (2=20-39%) | 2 (2=20-39%) | 1 (1=0-19%) | 1 (1=0-19%)
Cc1nn(C)c(=O)c(-c2c(F)ccc(Cl)c2CCc2ccc(-n3cncn3)cc2)c1O [Compound A-1.385, 4-[3-chloro-6-fluoro-2-[2-[4-(1,2,4-triazol-1-yl)phenyl]ethyl]phenyl]-5-hydroxy-2,6-dimethyl-pyridazin-3-one] | 5 (5=80-100%) | 5 (5=80-100%) | 5 (5=80-100%) | 5 (5=80-100%) | 5 (5=80-100%) | 5 (5=80-100%) | 5 (5=80-100%) | 5 (5=80-100%) | 5 (5=80-100%) | 5 (5=80-100%) | 5 (5=80-100%) | 5 (5=80-100%)
